Experiments:
Test in all cases: drug sensitivity score (DSS) (DSS (unitless, 0-50 scale)); higher = more sensitive (stronger viability inhibition); extreme values may be limits of the assay
Settings in all cases: 72 h; culture: 2D
[1] = tested on: SK-MEL-2
Method in brief: (§1)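 Patient-derived melanoma cultures (1000–1500 cells per well) and melanoma cell lines were grown in 2D in 384-well plates holding a 527-compound oncology library. Each compound was dissolved in DMSO or water and tested at five concentrations spanning a 10,000-fold range. After 72 h at 37 °C, viability was read by CellTiter-Glo luminescence. A drug sensitivity score, a modified area-under-curve measure, was derived from dose-response curves fitted in the in-house Breeze software.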

[2] = tested on: SK-MEL-28
Method in brief: as §1

[3] = tested on: FM-MEL-3
Method in brief: as §1

[4] = tested on: Bowes
Method in brief: as §1

[5] = tested on: WM852
Method in brief: as §1

[6] = tested on: WM165
Method in brief: as §1

[7] = tested on: FM-MEL-6
Method in brief: as §1

[8] = tested on: FM-MEL-2
Method in brief: as §1

| Structure (SMILES) | drug sensitivity score [1] | drug sensitivity score [2] | drug sensitivity score [3] | drug sensitivity score [4] | drug sensitivity score [5] | drug sensitivity score [6] | drug sensitivity score [7] | drug sensitivity score [8] |
| --- | --- | --- | --- | --- | --- | --- | --- | --- |
| S=c1[nH]cnc2nc[nH]c12 [Mercaptopurine] | 0 | 3.8 | 0 | 1.9 | 5.5 | 7.3 | 0.5 | 0.1 |
| Cc1ccc(C(=O)Nc2ccc(Oc3cc4cnn(C)c4cc3-c3cn[nH]c3)c(F)c2)c(=O)n1-c1ccc(F)cc1 [Merestinib] | 0 | 0.4 | 0 | 0 | 2.2 | 0 | 0 | 0 |
| CN[C@@H]1C[C@H]2O[C@@](C)([C@@H]1OC)n1c3ccccc3c3c4c(c5c6ccccc6n2c5c31)C(=O)N[C@H]4O [UCN-01] | 16.2 | 13.4 | 24.7 | 17.5 | 19.9 | 23.5 | 14.5 | 13.5 |
| CC[C@@H]1CN(C(=O)NCC(F)(F)F)C[C@@H]1c1cnc2cnc3[nH]ccc3n12 [Upadacitinib] | 0 | 0.3 | 3.1 | 0 | 2.1 | 0 | 3.6 | 3.6 |
| CCS(=O)(=O)c1cccc(-c2cc(C(=O)NC3CCN(C)CC3)c(C)c3[nH]c4ncc(C)cc4c23)c1 [TAK-901] | 2.4 | 4.1 | 1.9 | 7.3 | 4 | 9.4 | 1.9 | 0.9 |
| Cn1ncc(Cl)c1-c1cc(C(=O)N[C@H](CN)Cc2ccc(F)c(F)c2)oc1Cl [Uprosertib] | 0 | 0.5 | 0 | 0 | 0 | 1.1 | 0 | 1.2 |
| COC(=O)C[C@](O)(CCCC(C)(C)O)C(=O)O[C@@H]1C(OC)=C[C@]23CCCN2CCc2cc4c(cc2[C@H]13)OCO4 [Omacetaxine] | 18.2 | 22.4 | 25.9 | 29.1 | 26.1 | 27.2 | 28.5 | 20.4 |
| CC[C@H](CC#N)OC(=O)N[C@@H](C)c1cccc(NC(=O)Nc2ccc(-c3cnco3)c(OC)c2)c1 [AVN944] | 4.8 | 13.3 | 10.5 | 10.4 | 8.4 | 18.9 | 12.8 | 8.1 |
| CC(C)c1cc(-c2n[nH]c(=O)n2-c2ccc3c(ccn3C)c2)c(O)cc1O [Ganetespib] | 12.8 | 8.5 | 21 | 15.2 | 9.9 | 17.1 | 7 | 11.2 |
| O=c1[nH]c(C2CCCN2)nc2c1oc1ccc(Cl)cc12 (stereo not drawn) | 0 | 0 | 0 | 0 | 0 | 0.7 | 0 | 0.5 |
| COC(=O)c1ccc2c(c1)NC(=O)/C2=C(\Nc1ccc(N(C)C(=O)CN2CCN(C)CC2)cc1)c1ccccc1 [Nintedanib] | 0 | 2.1 | 1.8 | 6.5 | 5.3 | 0 | 5.6 | 1.5 |
| O=C(c1ccc(C(=O)N2CCC(N3CCCC3)CC2)c(Nc2ccccc2)c1)N1CCC(N2CCCC2)CC1 [UNC1215] | 0 | 0 | 0 | 0 | 0 | 0 | 0 | 0 |
| Cc1cc(Nc2ncc(Cl)c(Nc3ccccc3S(=O)(=O)C(C)C)n2)c(OC(C)C)cc1C1CCNCC1 [Ceritinib] | 0 | 1.5 | 4.3 | 0.3 | 1 | 4.5 | 2.6 | 4.3 |
| Cc1ccc(-n2nc(C(C)(C)C)cc2NC(=O)Nc2ccc(OCCN3CCOCC3)c3ccccc23)cc1 [Doramapimod] | 0 | 0 | 1.7 | 0 | 0 | 3.4 | 0.8 | 1.4 |
| Cc1cnc(-c2ccccc2C(C)C)nc1NCc1ccc(-n2ccnn2)cc1 [ML323] | 0 | 0 | 1.2 | 0.6 | 0.9 | 1.1 | 0 | 0 |
| COc1cc2ncnc(Oc3cccc(NC(=O)Nc4cc(C(C)(C)C(F)(F)F)on4)c3)c2cc1OC | 0 | 0 | 15 | 0 | 3.3 | 0 | 2 | 7.6 |

Source: the supplement of paper PMC8633005
